The values below come from patent publication US9290440B2, “Bicyclic compound” (TOA EIYO LTD., priority 2012, dated 2016).

The target in the assay is T1, human sGC α subunit and β subunit (Homo sapiens, UniProt Q02153).
T1 construct: expressed in transfected cells
T1 sequence (Q02153 1-619): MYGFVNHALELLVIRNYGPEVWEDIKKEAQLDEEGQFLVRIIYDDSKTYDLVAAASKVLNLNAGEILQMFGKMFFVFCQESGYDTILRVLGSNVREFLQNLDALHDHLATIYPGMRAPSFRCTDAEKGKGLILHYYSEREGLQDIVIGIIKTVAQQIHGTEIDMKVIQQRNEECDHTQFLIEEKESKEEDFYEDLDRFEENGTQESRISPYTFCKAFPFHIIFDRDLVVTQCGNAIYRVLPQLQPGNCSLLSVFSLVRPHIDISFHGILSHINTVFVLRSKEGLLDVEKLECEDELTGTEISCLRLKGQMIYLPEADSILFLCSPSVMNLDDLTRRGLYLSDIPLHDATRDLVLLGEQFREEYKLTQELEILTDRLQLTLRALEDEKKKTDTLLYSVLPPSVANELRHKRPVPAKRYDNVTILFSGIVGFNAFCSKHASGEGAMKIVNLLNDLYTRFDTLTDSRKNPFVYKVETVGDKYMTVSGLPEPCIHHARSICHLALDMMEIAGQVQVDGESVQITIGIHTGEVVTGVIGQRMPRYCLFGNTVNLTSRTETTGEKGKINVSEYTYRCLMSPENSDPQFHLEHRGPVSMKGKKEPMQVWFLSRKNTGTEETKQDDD
T1 sequence (Q02108 1-690 partner): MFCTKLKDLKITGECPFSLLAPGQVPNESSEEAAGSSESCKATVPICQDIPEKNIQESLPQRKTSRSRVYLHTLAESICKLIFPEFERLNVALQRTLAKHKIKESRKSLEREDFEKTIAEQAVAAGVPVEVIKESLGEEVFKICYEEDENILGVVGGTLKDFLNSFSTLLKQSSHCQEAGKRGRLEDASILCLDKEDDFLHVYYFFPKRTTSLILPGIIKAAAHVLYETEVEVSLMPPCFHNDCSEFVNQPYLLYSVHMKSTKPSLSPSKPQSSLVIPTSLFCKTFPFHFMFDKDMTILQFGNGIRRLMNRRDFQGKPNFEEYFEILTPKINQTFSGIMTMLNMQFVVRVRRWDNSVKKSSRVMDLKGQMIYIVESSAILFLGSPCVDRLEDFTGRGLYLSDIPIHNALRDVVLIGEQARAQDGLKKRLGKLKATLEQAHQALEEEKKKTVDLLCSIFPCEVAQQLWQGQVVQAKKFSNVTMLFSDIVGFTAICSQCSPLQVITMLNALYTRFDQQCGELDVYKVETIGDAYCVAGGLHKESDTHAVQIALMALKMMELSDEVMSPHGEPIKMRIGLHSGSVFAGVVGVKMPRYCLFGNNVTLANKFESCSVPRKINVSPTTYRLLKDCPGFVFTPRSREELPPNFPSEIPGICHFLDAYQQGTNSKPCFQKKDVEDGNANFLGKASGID
The assay is described as follows: Heme-independent property of sGC activating function (EC50 ratio, CHO-K1 cells expressing human sGC and mouse CNGA2). It is filed as cell-based. To be noted: EC50 in the absence of ODQ divided by EC50 in the presence of ODQ, sGC activation. Here is the method: For the assay, Chinese hamster ovary cells (CHO-K1 cells) in which human sGC α subunit and β subunit and mouse cyclic nucleotide gated channel (CNGA2) are stably expressed were used.
CHO-K1 cells in which human sGC and mouse CNGA2 are stably expressed were cultured at 37° C. in F-12 medium containing 10% (v/v) fetal bovine serum (FBS), penicillin (100 U/mL), streptomycin (100 μg/mL), G418 (250 μg/mL), and zeocin (250 μg/mL). The cells were suspended in the culture medium and seeded onto a 96-well plate, and then cultured at 37° C. for 24 hours. After washing with assay buffer 1 (140 mmol/L sodium chloride, 5 mmol/L potassium chloride, 0.5 mmol/L magnesium chloride, 0.01 mmol/L calcium chloride, 10 mmol/L glucose, 0.4 mmol/L magnesium sulfate, 10 mmol/L 4-(2-hydroxyethyl)piperazin-1-ylethane sulfonic acid, and 125 μmol/L sulfinpyrazone, pH 7.4), an indicator solution in which FURA2-AM as a fluorescent Ca^2+ indicator is dissolved at concentration of 5 μmol/L in assay buffer 1 was added followed by culture for 60 minutes at 37° C. The indicator solution was removed. After washing with assay buffer 1, the test compound solution was added and incubated for 10 minutes at room temperature. The plate was placed in a fluorometer (Flex Station II, Molecular Devices, LLC), and then the intracellular calcium concentration was measured as fluorescence intensity ratio which is obtained from each excitation wavelength (excitation wavelength of 340 nm and 380 nm and detection wavelength of 510 nm).
The test compound solution was prepared by dissolving each of the test compounds in DMSO to a concentration of 10 mmol/L, and then adding the assay buffer 2 (140 mmol/L sodium chloride, 5 mmol/L potassium chloride, 0.5 mmol/L magnesium chloride, 1 mmol/L calcium chloride, 10 mmol/L glucose, 0.4 mmol/L magnesium sulfate, 10 mmol/L 4-(2-hydroxyethyl)piperazin-1-ylethane sulfonic acid, 125 μmol/L sulfinpyrazone, 100 μmol/L isobutylmethylxanthine, 10 μmol/L 1H-[1,2,4]-oxadiazole[4,3-a]quinoxalin-1-one (hereinbelow, ODQ), pH 7.4) for dilution to have test concentration of 10 μmol/L. For the evaluation of a case in which ODQ is not contained, the same evaluation was performed except that ODQ is excluded from assay buffer 2. As a control solution, a DMSO solution was used instead of the test compound solution.
The activity of the test compound corresponds to the increase ratio (%) of the sGC activity at the time of adding the test compound solution with respect to the sGC activity at the time of adding the control solution, and it was calculated by dividing the fluorescence intensity ratio at the time of adding the test compound by the fluorescence intensity ratio of the control solution and subtracting the sGC activity (100%) at the time of adding the control solution.
For the representative compounds, activity was measured in the same manner as Test Example 1 at each test concentration of 0.0001, 0.001, 0.003, 0.01, 0.03, 0.1, 1, and 10 μmol/L.
The degree of heme-independent property of each test compound with regard to sGC activating function was obtained by dividing, for EC50 measured from the concentration-activation curve which has been established from the above, EC50 in the absence of ODQ by EC50 in the presence of ODQ. Specifically, the smaller the EC50 ratio is, the less the change in sGC activating function is, the change in the function being caused by the presence or absence of ODQ, and thus it is found to be more heme-independent.
EC50 value was obtained by measuring the activity of each compound to be tested at concentrations of 0.0001, 0.001, 0.003, 0.01, 0.03, 0.1, 1, and 10 μmol/L and performing the calculation using four-parameter logistics model using Assay Explorer (Accelrys).
As to `O=C(O)CCCCN(CCc1ccccc1OCc1ccc(CCc2ccccc2)cc1)Cc1ccc(C(=O)O)cc1` [Cinaciguat, reference compound], the “EC50 Ratio (ODQ−/ODQ+)” value was determined as 3.08. As for `O=C(O)CCCCN(CCc1ccccc1OCc1ccc(SCc2ccccc2)cc1)C1CCCc2cc(C(=O)O)ccc21` (stereo not drawn) [Example 15, 5-{N-[2-[2-(4-Benzylsulfanylbenzyloxyl)phenyl]ethyl]-N-(4-carboxybutyl)amino}-5,6,7,8-tetrahydronaphthalene-2-carboxylic acid], the “EC50 Ratio (ODQ−/ODQ+)” value is reported as 1.40. `O=C(O)CCCCN(CCc1ccccc1OCc1cccc2c1CCCC2)C1CCCc2cc(C(=O)O)ccc21` (stereo not drawn) [Example 29, 5-{N-(4-Carboxybutyl)-N-[2-[2-(5,6,7,8-tetrahydronaphthalene-1-ylmethoxy)phenyl]ethyl]amino}-5,6,7,8-tetrahydronaphthalene-2-carboxylic acid]: the “EC50 Ratio (ODQ−/ODQ+)” value is reported as 1.71.
